{"source": "patent US8937182B2", "about": "“Synthesis for thiazolidinedione compounds” (Metabolic Solutions Development Company, LLC, priority 2010, dated 2015)", "tested_on": "KKA^Y mice", "test": "Glucose, insulin and triglyceride in diabetic KKAy mice treated with exemplary compounds", "assay_type": "in vivo", "details": "93 mg/kg oral for 4 days, blood approx. 18 h after last dose, fasted, Vehicle A 24 (5)", "experimental": "(§1) The insulin sensitizing and antidiabetic pharmacology are measured in the KKA^Y mice as previously reported [Hofmann, C., Lornez, K., and Colca, J. R. (1991). Glucose transport deficiency corrected by treatment with the oral anti-hyperglycemic agent Pioglitazone. Endocrinology, 129:1915-1925.] Compounds are formulated in 1% sodium carboxy methylcellulose, and 0.01% tween 20 and dosed daily by oral gavage.\nGlucose, Insulin, and Triglyceride in Diabetic KKAy Mice Treated with Exemplary Compounds of the Present Invention.\nas §1, with “129:1915-1925.].” for “129:1915-1925.]”\nCompounds were formulated by suspension and orally dosed to KKA^Y mice at 93 mg/kg for 4 days. The compounds were first dissolved in DMSO and then placed into aqueous suspension containing 7-10% DMSO, 1% sodium methylcarboxycellulose, and 0.01% Tween 20. On the fifth day, the mice were fasted and blood samples were obtained approximately 18 hours after the last dose. The parameters were measured by standard assay methods. Data are mean and SEM N=6-12 mice."}
{"smiles": "O=C1NC(=O)C(Cc2ccc(OCC(=O)c3cccc(F)c3)cc2)S1", "note": "(stereo not drawn) [Compound 4, 5-{4-[2-(3-fluorophenyl)-2-oxoethoxy]benzyl}-1,3-thiazolidine-2,4-dione]", "values": [{"measurement": "Insulin (Mean/SD)", "result": 0.24}]}
{"smiles": "O=C1NC(=O)C(Cc2ccc(OCC(=O)c3ccc(F)cc3)cc2)S1", "note": "(stereo not drawn) [Compound 2, 5-{4-[2-(4-fluorophenyl)-2-oxoethoxy]benzyl}-1,3-thiazolidine-2,4-dione]", "values": [{"measurement": "Insulin (Mean/SD)", "result": 0.10}]}
{"smiles": "COc1ccc(C(=O)COc2ccc(CC3SC(=O)NC3=O)cc2)cc1", "note": "(stereo not drawn) [Compound 9, 5-{4-[2-(4-methoxyphenyl)-2-oxoethoxy]benzyl}-1,3-thiazolidine-2,4-dione]", "values": [{"measurement": "Insulin (Mean/SD)", "result": 0.76}]}
{"smiles": "O=C1NC(=O)C(Cc2ccc(OCC(=O)c3cccc(Cl)c3)cc2)S1", "note": "(stereo not drawn) [Compound 7, 5-{4-[2-(3-chlorophenyl)-2-oxoethoxy]benzyl}-1,3-thiazolidine-2,4-dione]", "values": [{"measurement": "Insulin (Mean/SD)", "result": 0.59}]}
{"smiles": "O=C1NC(=O)C(Cc2ccc(OCC(=O)c3ccccc3F)cc2)S1", "note": "(stereo not drawn) [Compound 3, 5-{4-[2-(2-fluorophenyl)-2-oxoethoxy]benzyl}-1,3-thiazolidine-2,4-dione]", "values": [{"measurement": "Insulin (Mean/SD)", "result": 0.20}]}
{"smiles": "O=C1NC(=O)C(Cc2ccc(OCC(=O)c3ccccc3Cl)cc2)S1", "note": "(stereo not drawn) [Compound 8, 5-{4-[2-(2-chlorophenyl)-2-oxoethoxy]benzyl}-1,3-thiazolidine-2,4-dione]", "values": [{"measurement": "Insulin (Mean/SD)", "result": 0.47}]}
